Test in all cases: GSH conjugation of CDNB, Michaelis-Menten fit
Holding throughout (type): biochemical
What all share (details): saturating GSH

One test concerns the target T1, TvGSTO-6S (Trametes versicolor, UniProt A0A384E158).
T1 construct: synthetic gene in pET-26b (NdeI/NotI), C-terminal His-tag, E. coli Rosetta2 (DE3) pLysS
T1 sequence (A0A384E158 1-246): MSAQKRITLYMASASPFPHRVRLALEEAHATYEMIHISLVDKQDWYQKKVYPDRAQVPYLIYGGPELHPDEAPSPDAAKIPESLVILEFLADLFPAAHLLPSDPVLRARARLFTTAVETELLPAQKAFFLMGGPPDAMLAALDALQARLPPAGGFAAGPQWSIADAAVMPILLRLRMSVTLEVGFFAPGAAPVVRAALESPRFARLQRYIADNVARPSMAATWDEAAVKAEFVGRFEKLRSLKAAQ

In another test the target is T2, TvGSTO-3S (Trametes versicolor, UniProt A0A384E145).
T2 construct: synthetic gene in pET-26b (NdeI/NotI), C-terminal His-tag, E. coli Rosetta2 (DE3) pLysS
T2 sequence (A0A384E145 1-240): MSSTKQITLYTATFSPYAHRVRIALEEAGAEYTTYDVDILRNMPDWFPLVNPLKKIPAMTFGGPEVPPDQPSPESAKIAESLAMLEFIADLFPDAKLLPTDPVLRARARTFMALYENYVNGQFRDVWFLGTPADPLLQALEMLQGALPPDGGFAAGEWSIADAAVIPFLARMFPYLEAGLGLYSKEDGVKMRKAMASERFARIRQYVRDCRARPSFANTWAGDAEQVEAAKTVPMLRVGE

In another test the target is T3, TvGSTO-1S (Trametes versicolor, UniProt R7S9J3).
T3 construct: gene TRAVEDRAFT_75639; synthetic gene in pET-26b (NdeI/NotI), C-terminal His-tag, E. coli Rosetta2 (DE3) pLysS
T3 sequence (R7S9J3 1-256): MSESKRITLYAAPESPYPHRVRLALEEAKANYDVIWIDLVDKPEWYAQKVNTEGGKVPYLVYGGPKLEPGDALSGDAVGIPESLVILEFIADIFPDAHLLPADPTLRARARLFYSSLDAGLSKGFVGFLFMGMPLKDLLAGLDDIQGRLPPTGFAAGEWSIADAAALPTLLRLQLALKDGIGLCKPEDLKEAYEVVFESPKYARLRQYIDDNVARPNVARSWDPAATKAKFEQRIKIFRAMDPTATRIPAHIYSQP

For the molecule `O=[N+]([O-])c1ccc(Cl)c([N+](=O)[O-])c1` [CDNB, 1-chloro-2,4-dinitrobenzene], the Km result on TvGSTO-6S, at TvGSTO-3S and at TvGSTO-1S was “All proteins exhibit an activity against CDNB” throughout.

The values above are taken from PMC4591263, “The GSTome Reflects the Chemical Environment of White-Rot Fungi” (PLoS ONE, 2015).
